Data: patent US20090298820A1, “3-SUBSTITUTED-1H-PYRROLO[2,3-B]PYRIDINE AND 3-SUBSTITUTED-1H-PYRROLO[3,2-B]PYRIDINE COMPOUNDS, THEIR USE AS MTOR KINASE AND PI3 KINASE INHIBITORS, AND THEIR SYNTHESES” (Wyeth, priority 2008, published 2009)

Experiments:
Type in all cases: biochemical
[1] = biological target: PI3Kα (Homo sapiens, UniProt P42336); experiment: PI3K-alpha fluorescence polarization assay; details: read-out: PI3Kα Median IC50
[2] = biological target: PI3Kγ (Homo sapiens, UniProt P48736); experiment: PI3K-gamma fluorescence polarization assay; details: read-out: PI3Kγ Median IC50
[3] = biological target: mTOR (Homo sapiens, UniProt P42345); experiment: mTOR enzyme assay (DELFIA format, His6-S6K substrate); details: read-out: mTOR Kinase Median IC50

Chain of PI3Kα (P42336 whole entry, species assumed): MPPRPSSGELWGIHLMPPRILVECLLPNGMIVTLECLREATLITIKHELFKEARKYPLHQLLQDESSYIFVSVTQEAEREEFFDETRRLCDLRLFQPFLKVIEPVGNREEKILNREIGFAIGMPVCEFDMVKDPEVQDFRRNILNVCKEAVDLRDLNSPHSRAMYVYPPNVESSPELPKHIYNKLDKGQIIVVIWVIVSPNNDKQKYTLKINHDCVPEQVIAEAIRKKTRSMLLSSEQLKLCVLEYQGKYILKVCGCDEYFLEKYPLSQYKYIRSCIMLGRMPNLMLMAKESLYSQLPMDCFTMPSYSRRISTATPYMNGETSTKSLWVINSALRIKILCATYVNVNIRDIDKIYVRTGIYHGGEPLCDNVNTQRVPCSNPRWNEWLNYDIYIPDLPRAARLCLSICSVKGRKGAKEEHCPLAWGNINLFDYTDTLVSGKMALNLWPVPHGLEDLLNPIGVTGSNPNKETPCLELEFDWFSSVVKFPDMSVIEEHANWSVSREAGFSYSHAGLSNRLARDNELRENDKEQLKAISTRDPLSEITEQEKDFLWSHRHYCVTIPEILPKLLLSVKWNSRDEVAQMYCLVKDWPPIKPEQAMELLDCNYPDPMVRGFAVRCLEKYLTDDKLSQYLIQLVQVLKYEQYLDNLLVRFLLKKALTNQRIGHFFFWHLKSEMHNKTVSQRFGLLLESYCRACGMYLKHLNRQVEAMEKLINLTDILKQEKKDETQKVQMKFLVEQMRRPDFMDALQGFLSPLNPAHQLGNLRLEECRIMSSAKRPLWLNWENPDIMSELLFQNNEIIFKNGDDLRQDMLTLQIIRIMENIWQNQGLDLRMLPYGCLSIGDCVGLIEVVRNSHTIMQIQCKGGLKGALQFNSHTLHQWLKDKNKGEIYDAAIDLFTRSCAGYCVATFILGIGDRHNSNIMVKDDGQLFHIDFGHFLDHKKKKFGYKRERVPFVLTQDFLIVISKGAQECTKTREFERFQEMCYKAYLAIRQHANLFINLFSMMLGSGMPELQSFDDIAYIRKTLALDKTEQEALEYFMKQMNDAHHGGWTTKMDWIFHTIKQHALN
Chain of PI3Kα (P27986 whole entry partner, species assumed): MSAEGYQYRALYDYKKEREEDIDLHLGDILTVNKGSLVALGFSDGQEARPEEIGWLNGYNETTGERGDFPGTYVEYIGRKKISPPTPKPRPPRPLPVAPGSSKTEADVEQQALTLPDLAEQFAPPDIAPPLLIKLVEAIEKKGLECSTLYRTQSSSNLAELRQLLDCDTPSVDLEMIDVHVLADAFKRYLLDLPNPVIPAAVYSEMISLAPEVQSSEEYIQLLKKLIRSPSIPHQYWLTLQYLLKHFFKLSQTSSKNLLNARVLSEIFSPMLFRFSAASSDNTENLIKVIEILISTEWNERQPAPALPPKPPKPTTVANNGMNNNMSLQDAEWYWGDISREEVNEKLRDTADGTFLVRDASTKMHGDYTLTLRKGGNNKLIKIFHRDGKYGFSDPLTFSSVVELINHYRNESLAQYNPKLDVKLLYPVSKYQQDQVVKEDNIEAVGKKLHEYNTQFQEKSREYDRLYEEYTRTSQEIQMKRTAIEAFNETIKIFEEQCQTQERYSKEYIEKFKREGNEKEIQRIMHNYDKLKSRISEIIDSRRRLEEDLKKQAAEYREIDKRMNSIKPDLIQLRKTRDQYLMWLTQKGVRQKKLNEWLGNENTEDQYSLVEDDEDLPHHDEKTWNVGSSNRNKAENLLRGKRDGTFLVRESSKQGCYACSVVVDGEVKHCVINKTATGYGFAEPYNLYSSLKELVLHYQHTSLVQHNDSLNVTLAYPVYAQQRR
Chain of PI3Kγ (P48736 whole entry, species assumed): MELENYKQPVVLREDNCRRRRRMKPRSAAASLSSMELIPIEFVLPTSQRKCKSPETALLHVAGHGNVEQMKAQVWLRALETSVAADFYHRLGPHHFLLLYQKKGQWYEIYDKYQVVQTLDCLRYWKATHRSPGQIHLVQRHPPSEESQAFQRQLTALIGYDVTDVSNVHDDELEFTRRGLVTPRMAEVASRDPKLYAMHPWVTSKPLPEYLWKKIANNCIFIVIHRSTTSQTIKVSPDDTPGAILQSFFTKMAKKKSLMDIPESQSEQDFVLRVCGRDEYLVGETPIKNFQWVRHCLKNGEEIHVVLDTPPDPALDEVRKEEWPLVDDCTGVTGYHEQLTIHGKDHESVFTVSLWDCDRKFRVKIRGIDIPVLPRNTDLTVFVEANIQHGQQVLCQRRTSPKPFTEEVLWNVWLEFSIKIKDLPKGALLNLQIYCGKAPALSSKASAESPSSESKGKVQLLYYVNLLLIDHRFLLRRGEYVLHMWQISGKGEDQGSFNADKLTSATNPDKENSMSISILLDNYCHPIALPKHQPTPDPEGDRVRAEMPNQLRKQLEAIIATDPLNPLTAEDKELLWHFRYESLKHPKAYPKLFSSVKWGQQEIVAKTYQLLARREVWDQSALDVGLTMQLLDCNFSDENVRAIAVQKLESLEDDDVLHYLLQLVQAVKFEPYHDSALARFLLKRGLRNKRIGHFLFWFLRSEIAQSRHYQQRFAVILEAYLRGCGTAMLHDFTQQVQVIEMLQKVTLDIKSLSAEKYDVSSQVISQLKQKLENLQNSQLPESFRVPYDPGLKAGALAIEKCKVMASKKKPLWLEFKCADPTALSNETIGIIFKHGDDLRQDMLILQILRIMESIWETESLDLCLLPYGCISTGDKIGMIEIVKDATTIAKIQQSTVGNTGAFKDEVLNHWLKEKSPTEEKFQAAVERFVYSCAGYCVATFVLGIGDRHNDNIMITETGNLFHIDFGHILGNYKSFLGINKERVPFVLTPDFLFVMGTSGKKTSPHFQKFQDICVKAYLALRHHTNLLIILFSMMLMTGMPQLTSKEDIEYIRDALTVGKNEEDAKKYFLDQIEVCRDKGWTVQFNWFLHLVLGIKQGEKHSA

SMILES | IC50 [1] [µM] | IC50 [2] [µM] | IC50 [3] [µM]
Cn1cc(/C=C2\Oc3cc(O)cc(O)c3C2=O)c2c(-c3ccccc3)ccnc21 [Compound 24, (2Z)-4,6-dihydroxy-2-[(1-methyl-4-phenyl-1H-pyrrolo[2,3-b]pyridin-3-yl)methylene]-1-benzofuran-3(2H)-one] | 0.095 | 0.093 | 0.0005
CN(C)c1ccc(-c2ccnc3c2c(/C=C2\Oc4cc(O)cc(O)c4C2=O)cn3C)cc1 [Compound 25, (2Z)-2-({4-[4-(dimethylamino)phenyl]-1-methyl-1H-pyrrolo[2,3-b]pyridin-3-yl}methylene)-4,6-dihydroxy-1-benzofuran-3(2H)-one] | 0.085 | 0.084 | 0.0005
COc1ccc2[nH]cc(/C=C3\Oc4cc(O)cc(O)c4C3=O)c2n1 [Compound 26, (2Z)-4,6-dihydroxy-2-[(5-methoxy-1H-pyrrolo[3,2-b]pyridin-3-yl)methylene]-1-benzofuran-3(2H)-one] | 0.233 | 1.58 | > 4
Cn1c(-c2ccccc2)c(/C=C2\Oc3cc(O)cc(O)c3C2=O)c2cccnc21 [Compound 27, (2Z)-4,6-dihydroxy-2-[(1-methyl-2-phenyl-1H-pyrrolo[2,3-b]pyridin-3-yl)methylene]-1-benzofuran-3(2H)-one] | 0.82 | 4 | 0.05
Cn1c(-c2ccccc2)c(/C=C2\Oc3cc(O)ccc3C2=O)c2cccnc21 [Compound 28, (2Z)-6-hydroxy-2-[(1-methyl-2-phenyl-1H-pyrrolo[2,3-b]pyridin-3-yl)methylene]-1-benzofuran-3(2H)-one] | 5.12 | 5.19 | 2.5
Cn1c(-c2ccccc2)c(/C=C2\Oc3cccc(O)c3C2=O)c2cccnc21 [Compound 29, (2Z)-4-hydroxy-2-[(1-methyl-2-phenyl-1H-pyrrolo[2,3-b]pyridin-3-yl)methylene]-1-benzofuran-3(2H)-one] | 3.67 | 8 | 2.7
Cn1cc(/C=C2\Oc3cc(O)cc(O)c3C2=O)c2c(-c3cccnc3)ccnc21 [Compound 33, (2Z)-4,6-dihydroxy-2-[(1-methyl-4-pyridin-3-yl-1H-pyrrolo[2,3-b]pyridin-3-yl)methylene]-1-benzofuran-3(2H)-one] | 0.008 | 0.038 | 0.0006
Cn1cc(/C=C2\Oc3cc(O)cc(O)c3C2=O)c2c(-c3ccc(C(N)=O)cc3)ccnc21 [Compound 34, 4-{3-[(Z)-(4,6-dihydroxy-3-oxo-1-benzofuran-2(3H)-ylidene)methyl]-1-methyl-1H-pyrrolo[2,3-b]pyridin-4-yl}benzamide] | 0.006 | 0.038 | 0.0002
CC(=O)Nc1ccc(-c2ccnc3c2c(/C=C2\Oc4cc(O)cc(O)c4C2=O)cn3C)cc1 [Compound 35, N-(4-{3-[(Z)-(4,6-dihydroxy-3-oxo-1-benzofuran-2(3H)-ylidene)methyl]-1-methyl-1H-pyrrolo[2,3-b]pyridin-4-yl}phenyl)acetamide] | 0.011 | 0.051 | 0.0004
Cn1cc(/C=C2\Oc3cc(O)cc(O)c3C2=O)c2c(-c3ccc(NS(C)(=O)=O)cc3)ccnc21 [Compound 36, N-(4-{3-[(Z)-(4,6-dihydroxy-3-oxo-1-benzofuran-2(3H)-ylidene)methyl]-1-methyl-1H-pyrrolo[2,3-b]pyridin-4-yl}phenyl)methanesulfonamide] | 0.007 | 0.036 | 0.0003
Cn1cc(/C=C2\Oc3cc(O)cc(O)c3C2=O)c2c(-c3ccc(N)cc3)ccnc21 [Compound 41, (2Z)-2-{[4-(4-aminophenyl)-1-methyl-1H-pyrrolo[2,3-b]pyridin-3-yl]methylene}-4,6-dihydroxy-1-benzofuran-3(2H)-one] | 0.024 | 0.141 | 0.0004
CNc1ccc(-c2ccnc3c2c(/C=C2\Oc4cc(O)cc(O)c4C2=O)cn3C)cc1 [Compound 43, (2Z)-4,6-dihydroxy-2-({1-methyl-4-[4-(methylamino)phenyl]-1H-pyrrolo[2,3-b]pyridin-3-yl}methylene)-1-benzofuran-3(2H)-one] | 0.019 | 0.066 | 0.0004
Cn1cc(/C=C2\Oc3cc(O)cc(O)c3C2=O)c2c(N3CCOCC3)ccnc21 [Compound 45, (2Z)-4,6-dihydroxy-2-[(1-methyl-4-morpholin-4-yl-1H-pyrrolo[2,3-b]pyridin-3-yl)methylene]-1-benzofuran-3(2H)-one] | 0.012 | 0.131 | 0.0003
CN1CCN(c2ccnc3c2c(/C=C2\Oc4cccc(O)c4C2=O)cn3C)CC1 [Compound 47, (2Z)-4-hydroxy-2-{[1-methyl-4-(4-methylpiperazin-1-yl)-1H-pyrrolo[2,3-b]pyridin-3-yl]methylene}-1-benzofuran-3(2H)-one] | 0.173 | 0.645 | 0.0028
Cn1cc(/C=C2\Oc3cccc(O)c3C2=O)c2c(N3CCOCC3)ccnc21 [Compound 48, (2Z)-4-hydroxy-2-[(1-methyl-4-morpholin-4-yl-1H-pyrrolo[2,3-b]pyridin-3-yl)methylene]-1-benzofuran-3(2H)-one] | 0.053 | 0.184 | 0.0022
Cn1cc(/C=C2\Oc3cc(O)cc(O)c3C2=O)c2c(-c3ccc(N4CCOCC4)cc3)ccnc21 [Compound 49, (2Z)-4,6-dihydroxy-2-{[1-methyl-4-(4-morpholin-4-ylphenyl)-1H-pyrrolo[2,3-b]pyridin-3-yl]methylene}-1-benzofuran-3(2H)-one] | 0.025 | 0.083 | 0.0002
Cn1cc(/C=C2\Oc3cc(O)cc(O)c3C2=O)c2c(N3CCC(O)CC3)ccnc21 [Compound 50, (2Z)-4,6-dihydroxy-2-{[4-(4-hydroxypiperidin-1-yl)-1-methyl-1H-pyrrolo[2,3-b]pyridin-3-yl]methylene}-1-benzofuran-3(2H)-one] | 0.023 | 0.177 | 0.0002
Cn1cc(/C=C2\Oc3cc(O)cc(O)c3C2=O)c2c(/C=C/c3ccccc3)ccnc21 [Compound 51, (2Z)-4,6-dihydroxy-2-({1-methyl-4-[(E)-2-phenylvinyl]-1H-pyrrolo[2,3-b]pyridin-3-yl}methylene)-1-benzofuran-3(2H)-one] | 0.047 | 0.092 | 0.0034
CN(C)c1cccc(-c2ccnc3c2c(/C=C2\Oc4cc(O)cc(O)c4C2=O)cn3C)c1 [Compound 52, (2Z)-2-({4-[3-(dimethylamino)phenyl]-1-methyl-1H-pyrrolo[2,3-b]pyridin-3-yl}methylene)-4,6-dihydroxy-1-benzofuran-3(2H)-one] | 0.123 | 0.199 | 0.0006
Cn1cc(/C=C2\Oc3cc(O)cc(O)c3C2=O)c2c(N3CC4CCC(C3)O4)ccnc21 [Compound 54, (2Z)-4,6-dihydroxy-2-{[1-methyl-4-(8-oxa-3-azabicyclo[3.2.1]oct-3-yl)-1H-pyrrolo[2,3-b]pyridin-3-yl]methylene}-1-benzofuran-3(2H)-one] | 0.011 | 0.07 | 0.0001
Cn1cc(/C=C2\Oc3cccc(O)c3C2=O)c2c(N3CC4CCC(C3)O4)ccnc21 [Compound 55, (2Z)-4-hydroxy-2-{[1-methyl-4-(8-oxa-3-azabicyclo[3.2.1]oct-3-yl)-1H-pyrrolo[2,3-b]pyridin-3-yl]methylene}-1-benzofuran-3(2H)-one] | 0.104 | 0.051 | 0.0004
CN1CCN(c2ccc(-c3ccnc4c3c(/C=C3\Oc5cc(O)cc(O)c5C3=O)cn4C)cc2)CC1 [Compound 56, (2Z)-4,6-dihydroxy-2-({1-methyl-4-[4-(4-methylpiperazin-1-yl)phenyl]-1H-pyrrolo[2,3-b]pyridin-3-yl}methylene)-1-benzofuran-3(2H)-one] | 0.079 | 0.581 | 0.0019
CN1CCN(c2ccc(-c3ccnc4c3c(/C=C3\Oc5cccc(O)c5C3=O)cn4C)cc2)CC1 [Compound 57, (2Z)-4-hydroxy-2-({1-methyl-4-[4-(4-methylpiperazin-1-yl)phenyl]-1H-pyrrolo[2,3-b]pyridin-3-yl}methylene)-1-benzofuran-3(2H)-one] | 0.147 | 0.148 | 0.0114
Cn1cc(/C=C2\Oc3ccc(Br)cc3C2=O)c2c(N3CC4CCC(C3)O4)ccnc21 [Compound 59, (2Z)-5-bromo-2-{[1-methyl-4-(8-oxa-3-azabicyclo[3.2.1]oct-3-yl)-1H-pyrrolo[2,3-b]pyridin-3-yl]methylene}-1-benzofuran-3(2H)-one] | 0.391 | 0.98 | 0.0355
CCNC(=O)Nc1ccc2c(c1)C(=O)/C(=C/c1cn(C)c3nccc(N4CC5CCC(C4)O5)c13)O2 [Compound 61, 1-ethyl-3-[(2Z)-2-{[1-methyl-4-(8-oxa-3-azabicyclo[3.2.1]oct-3-yl)-1H-pyrrolo[2,3-b]pyridin-3-yl]methylene}-3-oxo-2,3-dihydro-1-benzofuran-5-yl]Urea] | 0.311 | 0.668 | 0.057
Cn1cc(/C=C2\Oc3cccc(O)c3C2=O)c2c(-c3ccc(N4CCOCC4)nc3)ccnc21 [Compound 69, (2Z)-4-hydroxy-2-{[1-methyl-4-(6-morpholin-4-ylpyridin-3-yl)-1H-pyrrolo[2,3-b]pyridin-3-yl]methylene}-1-benzofuran-3(2H)-one] | 0.064 | 0.281 | 0.0248
Cn1cc(/C=C2\Oc3cccc(O)c3C2=O)c2c(-c3ccc(N4CCCCC4)nc3)ccnc21 [Compound 70, (2Z)-4-hydroxy-2-{[1-methyl-4-(6-piperidin-1-ylpyridin-3-yl)-1H-pyrrolo[2,3-b]pyridin-3-yl]methylene}-1-benzofuran-3(2H)-one] | 0.271 | 0.242 | 0.115
